Twelve molecules from US8791303B2, “Herbicides” (Syngenta Limited, priority 2009, dated 2014) can be followed below.

Structures are written as SMILES.

Holding throughout (assay type): in vivo
Series [1] has as its system Avena fatua (AVEFA). Kind of series: Example A glasshouse herbicide test, pre-emergence, AVEFA. To be noted: Avena fatua, pre-emergence, 312 h, Rate 250 g/ha, sprayed after cultivation for one day, evaluated after 13 days, read-out: Pre-Emergence Activity AVEFA (100=total damage to plant; 0=no damage to plant). On the procedure:
(§1) Seeds of a variety of test species are sown in standard soil in pots. After cultivation for one day (pre-emergence) or after 8 days cultivation (post-emergence) under controlled conditions in a glasshouse (at 24/16° C., day/night; 14 hours light; 65% humidity), the plants are sprayed with an aqueous spray solution derived from the formulation of the technical active ingredient in acetone/water (50:50) solution containing 0.5% Tween 20 (polyoxyethelyene sorbitan monolaurate, CAS RN 9005-64-5).
(§2) The test plants are then grown in a glasshouse under controlled conditions in a glasshouse (at 24/16° C., day/night; 14 hours light; 65% humidity) and watered twice daily. After 13 days for pre and post-emergence, the test is evaluated (100=total damage to plant; 0=no damage to plant).
(§3) Lolium perenne (LOLPE), Alopecurus myosuroides (ALOMY), Echinochloa crus-galli (ECHCG), Avena fatua (AVEFA)

For series [2], the system named is Alopecurus myosuroides (ALOMY). Description: Example A glasshouse herbicide test, post-emergence, ALOMY. To be noted: Alopecurus myosuroides, post-emergence, 312 h, Rate 250 g/ha, sprayed after 8 days cultivation, evaluated after 13 days, read-out: Post-Emergence Activity ALOMY (100=total damage to plant; 0=no damage to plant). On the procedure: as §1, §2, §3
For series [3], the system named is Alopecurus myosuroides (ALOMY). Description: Example A glasshouse herbicide test, pre-emergence, ALOMY. The following applies: Alopecurus myosuroides, pre-emergence, 312 h, Rate 250 g/ha, sprayed after cultivation for one day, evaluated after 13 days, read-out: Pre-Emergence Activity ALOMY (100=total damage to plant; 0=no damage to plant). As to the method:
as §1, §2, §3

Series [4] has as its system Echinochloa crus-galli (ECHCG). Kind of series: Example A glasshouse herbicide test, pre-emergence, ECHCG. To be noted: Echinochloa crus-galli, pre-emergence, 312 h, Rate 250 g/ha, sprayed after cultivation for one day, evaluated after 13 days, read-out: Pre-Emergence Activity ECHCG (100=total damage to plant; 0=no damage to plant). As to the method: as §1, §2, §3
The subject of series [5] is Winter Wheat variety 'Hereward'. Description: Example B crop damage test, post-emergence, wheat seed treated with safener cloquintocet mexyl. The following applies: Rate 250 g/ha; post-emergence spray 8 days after sowing; seed treated with cloquintocet mexyl 0.5 g/kg dry seed; evaluated after 13 days. As to the method: Seeds of the Winter Wheat variety ‘Hereward’ were seed treated with a wettable powder formulation of the cereal herbicide safener, cloquintocet mexyl, at a rate of 0.5 grams per kilogram of dry seed prior to the initiation of glasshouse testing. One seed was sown per 1.5 inch plastic pot into a sandy loam soil at a depth of 1 cm, 8 days prior to application of the test compounds and was watered and grown under controlled conditions in a glasshouse (at 24/16° C., day/night; 14 hours light; 65% humidity). The plants were sprayed post-emergence with an aqueous spray solution derived from the formulation of the technical active ingredient in acetone/water (50:50) solution containing 0.5% Tween 20 (polyoxyethelyene sorbitan monolaurate, CAS RN 9005-64-5).
(§4) The test plants were then grown in a glasshouse under controlled conditions in a glasshouse (at 24/16° C., day/night; 14 hours light; 65% humidity) and watered twice daily. After 13 days for pre and post-emergence, the test was evaluated (100=total damage to plant; 0=no damage to plant).

The subject of series [6] is Avena fatua (AVEFA). Description: Example A glasshouse herbicide test, post-emergence, AVEFA. To be noted: Avena fatua, post-emergence, 312 h, Rate 250 g/ha, sprayed after 8 days cultivation, evaluated after 13 days, read-out: Post-Emergence Activity AVEFA (100=total damage to plant; 0=no damage to plant). As to the method:
as §1, §2, §3

Series [7] has as its system Lolium perenne (LOLPE). Description: Example A glasshouse herbicide test, post-emergence, LOLPE. The following applies: Lolium perenne, post-emergence, 312 h, Rate 250 g/ha, sprayed after 8 days cultivation, evaluated after 13 days, read-out: Post-Emergence Activity LOLPE (100=total damage to plant; 0=no damage to plant). As to the method: as §1, §2, §3
For series [8], the system named is Winter Wheat variety 'Hereward'. Description: Example B crop damage test, post-emergence, unsafened wheat. To be noted: Rate 250 g/ha; post-emergence spray after 8 days cultivation; no safener; evaluated after 13 days. On the procedure:
Seeds of the Winter Wheat variety ‘Hereward’ were sown in standard soil in pots. After 8 days cultivation under controlled conditions in a glasshouse (at 24/16° C., day/night; 14 hours light; 65% humidity), the plants were sprayed post-emergence with an aqueous spray solution derived from the formulation of the technical active ingredient in acetone/water (50:50) solution containing 0.5% Tween 20 (polyoxyethelyene sorbitan monolaurate, CAS RN 9005-64-5).
as §4

In series [9] the test system is Echinochloa crus-galli (ECHCG). Kind of series: Example A glasshouse herbicide test, post-emergence, ECHCG. The following applies: Echinochloa crus-galli, post-emergence, 312 h, Rate 250 g/ha, sprayed after 8 days cultivation, evaluated after 13 days, read-out: Post-Emergence Activity ECHCG (100=total damage to plant; 0=no damage to plant). On the procedure: as §1, §2, §3

The subject of series [10] is Lolium perenne (LOLPE). Kind of series: Example A glasshouse herbicide test, pre-emergence, LOLPE. To be noted: Lolium perenne, pre-emergence, 312 h, Rate 250 g/ha, sprayed after cultivation for one day, evaluated after 13 days, read-out: Pre-Emergence Activity LOLPE (100=total damage to plant; 0=no damage to plant). As to the method: as §1, §2, §3

On to `Cc1cc(C)c(C2C(=O)C/C(=C\C3CCCCC3)C2=O)c(C)c1` (stereo not drawn) [Compound A1], for which the pest or weed control at 250 g/ha in the series on Avena fatua (AVEFA) [1] was determined as 50%; in series [2], 80%; in series [3] it was 70%; in [4], 100%; with Avena fatua (AVEFA) [6], 80%; in the series with Lolium perenne (LOLPE) [7], 80%. The pest or weed control at 250 g/ha turned out to be 90% in series [9] and 100% with Lolium perenne (LOLPE) [10]. The “Winter Wheat (Hereward) + cloquintocet mexyl damage (100=total damage to plant; 0=no damage to plant)” value in series [5] came out at 50. The “Winter Wheat (Hereward) damage (100=total damage to plant; 0=no damage to plant)” value in series [8] is 60.

With `Cc1cc(C)c(C2C(=O)CC(CC3CCCCC3)C2=O)c(C)c1` (stereo not drawn) [Compound A2], the pest or weed control at 250 g/ha amounted to 70% in the series with Avena fatua (AVEFA) [1]; 70% in series [2]; 70% in series [3]; 90% in series [4]; 80% with Avena fatua (AVEFA) [6]; 100% in the series with Lolium perenne (LOLPE) [7]. For the same molecule, the pest or weed control at 250 g/ha in [9] turned out to be 90%; with Lolium perenne (LOLPE) [10], 100%. The “Winter Wheat (Hereward) + cloquintocet mexyl damage (100=total damage to plant; 0=no damage to plant)” value in [5] worked out at 10. In addition, the “Winter Wheat (Hereward) damage (100=total damage to plant; 0=no damage to plant)” value in series [8] was found to be 70.

Regarding `Cc1cc(C)c(C2C(=O)CC(CC3CCCC3)C2=O)c(C)c1` (stereo not drawn) [Compound A3], the pest or weed control at 250 g/ha came to 70% in the series with Avena fatua (AVEFA) [1]; 90% in series [2]; 100% in series [3]; 100% in [4]; 80% with Avena fatua (AVEFA) [6]; 90% in the series on Lolium perenne (LOLPE) [7]. Also, the results for the pest or weed control at 250 g/ha (in series [9]; with Lolium perenne (LOLPE) [10]) were 90% and 100%, respectively. Also, the “Winter Wheat (Hereward) + cloquintocet mexyl damage (100=total damage to plant; 0=no damage to plant)” value in [5] is 20. In addition, the “Winter Wheat (Hereward) damage (100=total damage to plant; 0=no damage to plant)” value in [8] turned out to be 60.

In the case of `Cc1cc(C)c(C2C(=O)C/C(=C\C3CCCC3)C2=O)c(C)c1` (stereo not drawn) [Compound A4], the pest or weed control at 250 g/ha in the series on Avena fatua (AVEFA) [1] is 70%; in series [2] it was 70%; in series [3] it was 100%; in series [4] it was 100%; in the series on Avena fatua (AVEFA) [6] it was 70%; in the series on Lolium perenne (LOLPE) [7] it was 60%. Moreover, the pest or weed control at 250 g/ha in series [9] worked out at 90%; with Lolium perenne (LOLPE) [10], 100%. Also, the “Winter Wheat (Hereward) + cloquintocet mexyl damage (100=total damage to plant; 0=no damage to plant)” value in [5] is 0. For the same molecule, in series [8], the “Winter Wheat (Hereward) damage (100=total damage to plant; 0=no damage to plant)” value is listed as 60.

For the molecule `Cc1cc(C)c(C2=C(OC(=O)C(C)(C)C)C(CC3CCC(=NO)CC3)CC2=O)c(C)c1` (stereo not drawn) [Compound B5], the pest or weed control at 250 g/ha in the series on Avena fatua (AVEFA) [1] came out at 40%; in series [3], 70%; in [4], 70%; in the series on Lolium perenne (LOLPE) [10] it was 90%. In addition, the “Winter Wheat (Hereward) + cloquintocet mexyl damage (100=total damage to plant; 0=no damage to plant)” value in series [5] stood at 10. In addition, the “Winter Wheat (Hereward) damage (100=total damage to plant; 0=no damage to plant)” value in series [8] is 40.

Regarding `Cc1cc(C)c(C2=C(OC(=O)C(C)(C)C)CC(Cc3ccccc3)C2=O)c(C)c1` (stereo not drawn) [Compound B12], the pest or weed control at 250 g/ha is 20% in the series with Avena fatua (AVEFA) [1]; 60% in series [2]; 30% in series [3]; 40% in [4]; 30% with Avena fatua (AVEFA) [6]; 90% in the series on Lolium perenne (LOLPE) [7]. Further, the pest or weed control at 250 g/ha in series [9] came to 50%; in the series on Lolium perenne (LOLPE) [10] it was 90%.

Turning to `Cc1cccc(CC2CC(OC(=O)C(C)(C)C)=C(c3c(C)cc(C)cc3C)C2=O)c1` (stereo not drawn) [Compound B13], the pest or weed control at 250 g/ha with Avena fatua (AVEFA) [1] was determined as 20%; in [2], 60%; in series [3], 40%; in [4], 60%; with Avena fatua (AVEFA) [6], 30%; in the series on Lolium perenne (LOLPE) [7], 80%. Further, the pest or weed control at 250 g/ha in series [9] amounted to 60%; in the series on Lolium perenne (LOLPE) [10], 70%.

As for `Cc1cc(C)c(C2=C(OC(=O)C(C)(C)C)CC(Cc3ccc(C#N)cc3)C2=O)c(C)c1` (stereo not drawn) [Compound B14], the pest or weed control at 250 g/ha amounted to 10% in the series with Avena fatua (AVEFA) [1]; 70% in [2]; 60% in series [3]; 50% in [4]; 50% with Avena fatua (AVEFA) [6]; 60% in the series with Lolium perenne (LOLPE) [7]. The figures for the pest or weed control at 250 g/ha (in [9]; in the series with Lolium perenne (LOLPE) [10]) were 70% and 80%, respectively.

For the molecule `Cc1cc(C)c(C2=C(OC(=O)C(C)(C)C)CC(Cc3cc(F)cc(F)c3)C2=O)c(C)c1` (stereo not drawn) [Compound B15], the pest or weed control at 250 g/ha in the series with Avena fatua (AVEFA) [1] was 20%; in series [2], 10%; in series [3] it was 20%; in series [4], 40%; with Avena fatua (AVEFA) [6] it was 10%; in the series with Lolium perenne (LOLPE) [7], 70%. For the same molecule, the pest or weed control at 250 g/ha in series [9] was 50%; in the series on Lolium perenne (LOLPE) [10], 70%.

`Cc1cc(C)cc(CC2CC(OC(=O)C(C)(C)C)=C(c3c(C)cc(C)cc3C)C2=O)c1` (stereo not drawn) [Compound B16]: the pest or weed control at 250 g/ha in the series on Avena fatua (AVEFA) [1] was determined as 10%; in series [2], 30%; in series [3], 40%; in series [4], 50%; in the series on Avena fatua (AVEFA) [6] it was 10%; in the series with Lolium perenne (LOLPE) [7], 40%. Moreover, the values for the pest or weed control at 250 g/ha (in [9]; in the series on Lolium perenne (LOLPE) [10]) were 50% and 80%, respectively.

On to `Cc1cc(C)c(C2=C(OC(=O)C(C)(C)C)CC(Cc3ccc(S(C)(=O)=O)cc3)C2=O)c(C)c1` (stereo not drawn) [Compound B18], for which the pest or weed control at 250 g/ha was 60% in the series with Avena fatua (AVEFA) [1]; 70% in [2]; 60% in [3]; 80% in series [4]; 80% with Avena fatua (AVEFA) [6]; 50% in the series with Lolium perenne (LOLPE) [7]. Further, the pest or weed control at 250 g/ha was found to be 80% in [9] and 70% in the series with Lolium perenne (LOLPE) [10].

With `COc1ccc(CC2CC(OC(=O)C(C)(C)C)=C(c3c(C)cc(C)cc3C)C2=O)cc1` (stereo not drawn) [Compound B19], the pest or weed control at 250 g/ha came to 30% with Avena fatua (AVEFA) [1]; 80% in series [2]; 40% in series [3]; 10% in series [4]; 60% with Avena fatua (AVEFA) [6]; 80% in the series on Lolium perenne (LOLPE) [7]. Also, the pest or weed control at 250 g/ha in [9] was 30%; in the series with Lolium perenne (LOLPE) [10], 80%.
